Values quoted from earlier work in patent publication US7932258B2, “Use of a partially neutralized, anionic (meth) acrylate copolymer as a coating for the production of a medicament pharmaceutical form releasing active substance at reduced pH values” (Evonik Roehm GmbH, priority 2005, dated 2011).

Settings: pH 4.0

In the case of `CC(=O)Oc1ccccc1C(=O)O` [Acetylsalicylic acid], the “Solubility and stability of the active substance” value is listed as “adequately soluble and stable”.
